Results published in article PMC6155662, “Trypanocidal Activity of Quinoxaline 1,4 Di-N-oxide Derivatives as Trypanothione Reductase Inhibitors” (Molecules : A Journal of Synthetic Chemistry and Natural …, 2017).
Where two headings read alike, the source gives them in different places.

What was measured:
[1] = Cytotoxicity assay (Alamar Blue) on macrophages; format: cell-based, murine; settings: mouse, J774A.1 macrophages, mean and SD of triplicate
Protocol: The murine macrophage cell line J774.A1 was maintained in culture flasks with RPMI 1640 medium supplemented with 10% FBS, 1% MEM-NEAA medium (Gibco) and 100 U/mL antibiotic-antifungal mixture (Gibco). Cells were incubated at 37 °C with 5% CO2 and humidity. Trypsinized J774.A1 macrophages were washed and viability was assessed by the trypan blue dye (Sigma-Aldrich, Toluca, Edo de Mexico, Mexico) exclusion assay. In a 96-well microplate, 50,000 macrophages were seeded per well and a dose-response assay was performed. Compounds were evaluated using six-fold serial dilutions ranging from 100 µg/mL to 0.3 µg/mL of final concentration. Each compound was tested in triplicate. After 20 h incubation, Alamar Blue was added (10% v/v) and cells were incubated for an additional 4 h period. Results were obtained as previously described and CC50 was calculated. As a negative control of cytotoxicity, cells were incubated only in the presence of 0.1% DMSO [39, 40].

[2] = tested on: T. cruzi bloodstream trypomastigotes INC-5 strain; assay: microbe, parasite or virus in culture; format: cell-based; settings: for CC50: bloodstream trypomastigotes, 24 h at 4 °C (called IC50 in abstract), read-out: LC50 INC-5 Strain
Protocol: (§1) In this study, two strains of T. cruzi isolated in Mexico were used. T. cruzi NINOA strain (MHOM/MX/1994/NINOA) was obtained from a patient with acute Chagas disease and T. cruzi INC-5 (MHOM/MX/1994/INC5) was isolated from a patient in the chronic phase of the disease. Epimastigotes were cultured in vitro in liver infusion-tryptose (LIT) medium supplemented with 10% heat inactivated fetal bovine serum (FBS) (Gibco) and 100 U/mL penicillin-streptomycin (In vitro S.A.), and incubated at 27 °C. CD1 mice, aged 6–8 weeks, were infected with T. cruzi to obtain bloodstream trypomastigote samples. Animal experiments were performed according to Norma Oficial Mexicana (NOM-062-Z00-1999) published on 22 August, 2009.
(§2) CD1 female mice 6–8 weeks old were infected with T. cruzi bloodstream trypomastigotes of the INC-5 and NINOA strains. The course of infection continued for 4–6 weeks. At the peak of parasitemia blood was obtained by cardiac puncture using sodium heparin as an anticoagulant. The blood was adjusted to 1 × 10^6 bloodstream trypomastigotes/mL.
(§3) In each well of the 96-well plate, 195 μL of infected blood and 5 μL of quinoxaline 1,4-di-N-oxide derivatives or reference drug dilutions were seeded, with each well reaching a final volume of 200 µL. Each assay was performed in triplicate. Initially, all compounds were tested at 50 μg/mL. […] As a negative control of lysis, wells with untreated blood trypomastigotes were used, and as a positive control, wells with the reference drugs were used. The microplates were incubated at 4 °C for 24 h. Bloodstream trypomastigotes were quantified by the method of Brener-Pizzi, 5 μL of blood were placed on a slide and covered with a coverslip 13 × 13 mm. The mobile protozoa were counted in 15 fields at 40× magnification using an optical microscope. The percentage lysis was determined by comparing the remaining trypomastigotes against the negative control. LC50 was determined with the Probit statistical tool. The results were later converted to micromolar units.

[3] = tested on: T. cruzi bloodstream trypomastigotes NINOA strain; assay: microbe, parasite or virus in culture; format: cell-based; settings: Trypanosoma cruzi
Protocol: as §1, §2, §3

Structure (SMILES): CC(C)OC(=O)c1ccc2c(c1)[n+]([O-])c(C(=O)C(C)C)c(C(F)(F)F)[n+]2[O-] [Compound T-085, Isopropyl 2-isobutyryl-3-trifluoromethylquinoxaline-7-carboxylate 1,4-di-N-oxide]
- CC50 at 24 h [1]: 10.4 ± 0.8 µM
- CC50 ([2]; Trypanosoma cruzi, 24 h): 73 µM
- killing at 50 µg/mL ([2]; Trypanosoma cruzi, 50 μg/mL, 24 h at 4 °C, infected mouse blood, read-out: % Lysis at 50 μg/mL INC-5 Strain): 76.2 ± 1.2%
- CC50 [2]: 73.1 ± 12.4 µM
- LC50 ([3]; 24 h): 59.9 ± 7.9 µM
- killing at 50 µg/mL ([3]; 50 μg/mL, 24 h at 4 °C, infected mouse blood, read-out: % Lysis at 50 μg/mL NINOA Strain): 74.2 ± 6.4%
